From PubChem BioAssay (NCI)
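Compound exposure: 48 hours, 5 concentrations, 96-well plates. At the GI50, growth is halved. TGI marks complete inhibition of growth.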

Experiments:
Test in all cases: NCI anticancer screen, dose series, 48 h
[1] = tested on: SN12C renal
[2] = tested on: NCI/ADR-RES ovarian
[3] = tested on: HL-60(TB) leukemia
[4] = tested on: SF-295 CNS
[5] = tested on: OVCAR-4 ovarian
[6] = tested on: SF-539 CNS
[7] = tested on: NCI-H522 lung
[8] = tested on: TK-10 renal
[9] = tested on: PC-3 prostate
[10] = tested on: CCRF-CEM leukemia
[11] = tested on: UO-31 renal
[12] = tested on: OVCAR-3 ovarian
[13] = tested on: SNB-75 CNS
[14] = tested on: CAKI-1 renal
[15] = tested on: HCC-2998 colon
[16] = tested on: MOLT-4 leukemia
[17] = tested on: M14 melanoma
[18] = tested on: BT-549 breast
[19] = tested on: A498 renal
[20] = tested on: HOP-92 NSCLC
[21] = tested on: SR leukemia
[22] = tested on: HT29 colon
[23] = tested on: SK-MEL-5 melanoma
[24] = tested on: HS 578T breast
[25] = tested on: OVCAR-5 ovarian
[26] = tested on: HOP-62 NSCLC
[27] = tested on: 786-0 renal
[28] = tested on: HCT-116 colon
[29] = tested on: MCF7 breast
[30] = tested on: SK-MEL-28 melanoma
[31] = tested on: RXF 393 renal
[32] = tested on: NCI-H23 lung
[33] = tested on: SW-620 colon
[34] = tested on: MALME-3M melanoma
[35] = tested on: OVCAR-8 ovarian
[36] = tested on: SF-268 CNS
[37] = tested on: SK-MEL-2 melanoma
[38] = tested on: HCT-15 colon
[39] = tested on: U251 CNS
[40] = tested on: MDA-MB-468 breast
[41] = tested on: MDA-MB-435
[42] = tested on: EKVX NSCLC
[43] = tested on: A549 NSCLC
[44] = tested on: KM12 colon
[45] = tested on: RPMI-8226 leukemia
[46] = tested on: NCI-H460 lung
[47] = tested on: DU-145 prostate
[48] = tested on: T-47D breast
[49] = tested on: ACHN renal
[50] = tested on: MDA-MB-231 breast
[51] = tested on: LOX IMVI melanoma
[52] = tested on: K-562 leukemia
[53] = tested on: IGROV1 ovarian
[54] = tested on: UACC-62 melanoma
[55] = tested on: COLO 205 colon
[56] = tested on: NCI-H226 lung
[57] = tested on: SNB-19 CNS
[58] = tested on: UACC-257 melanoma
[59] = tested on: SK-OV-3 ovarian

Compound `O=C(NO)c1ccc(CNC(=O)[C@H]2Cc3c([nH]c4ccccc34)[C@H](c3ccc(Cl)cc3)N2)cc1` has a GI50 [1] of 2410 nM, a TGI [1] of 9150 nM and a GI50 [2] of 3350 nM. For the same compound, the TGI [2] was > 22000 nM, the GI50 [3] was 706 nM and the TGI [3] was 3130 nM. It also gave a GI50 [4] of 1810 nM, a TGI [4] of 4750 nM and a GI50 [5] of 3730 nM. For the same compound, the TGI [5] was > 22000 nM, the GI50 [6] was 1140 nM and the TGI [6] was 4240 nM. The GI50 [7] was 584 nM, the TGI [7] was 3160 nM and the GI50 [8] was 1510 nM. It also gave a TGI [8] of 14600 nM, a GI50 [9] of 1760 nM and a TGI [9] of 9170 nM. The GI50 [10] was 617 nM, the TGI [10] was > 22000 nM and the GI50 [11] was 2640 nM. For the same compound, the TGI [11] was 6270 nM, the GI50 [12] was 1230 nM and the TGI [12] was 9150 nM. It also gave a GI50 [13] of 2260 nM, a TGI [13] of 7580 nM and a GI50 [14] of 2330 nM. The TGI [14] was 9730 nM, the GI50 [15] was 605 nM and the TGI [15] was 3080 nM. The GI50 [16] was 563 nM, the TGI [16] was > 22000 nM and the GI50 [17] was 2200 nM. The TGI [17] was 8420 nM, the GI50 [18] was 4930 nM and the TGI [18] was 11000 nM. The GI50 [19] was 2060 nM, the TGI [19] was 9060 nM and the GI50 [20] was 930 nM. The TGI [20] was 4480 nM, the GI50 [21] was 1150 nM and the TGI [21] was > 22000 nM. The GI50 [22] was 838 nM, the TGI [22] was > 22000 nM and the GI50 [23] was 721 nM. For the same compound, the TGI [23] was 2710 nM, the GI50 [24] was 1010 nM and the TGI [24] was > 22000 nM. It also gave a GI50 [25] of 456 nM, a TGI [25] of 3010 nM and a GI50 [26] of 1270 nM. For the same compound, the TGI [26] was 7420 nM, the GI50 [27] was 3710 nM and the TGI [27] was 14200 nM. The GI50 [28] was 609 nM, the TGI [28] was 3720 nM and the GI50 [29] was 874 nM. It also gave a TGI [29] of 8360 nM, a GI50 [30] of 878 nM and a TGI [30] of 3620 nM. The GI50 [31] was 455 nM, the TGI [31] was 2250 nM and the GI50 [32] was 1330 nM. For the same compound, the TGI [32] was 4260 nM, the GI50 [33] was 687 nM and the TGI [33] was 2370 nM. It also gave a GI50 [34] of 410 nM, a TGI [34] of 2310 nM and a GI50 [35] of 942 nM. For the same compound, the TGI [35] was > 22000 nM, the GI50 [36] was 2920 nM and the TGI [36] was 12500 nM. For the same compound, the GI50 [37] was 2770 nM, the TGI [37] was 7030 nM and the GI50 [38] was 4260 nM. The TGI [38] was > 22000 nM, the GI50 [39] was 1210 nM and the TGI [39] was 5800 nM. The GI50 [40] was 380 nM, the TGI [40] was 1140 nM and the GI50 [41] was 959 nM. For the same compound, the TGI [41] was 4360 nM, the GI50 [42] was 2650 nM and the TGI [42] was 16400 nM. For the same compound, the GI50 [43] was 3970 nM, the TGI [43] was > 22000 nM and the GI50 [44] was 2360 nM. The TGI [44] was 6710 nM, the GI50 [45] was 564 nM and the TGI [45] was > 22000 nM. For the same compound, the GI50 [46] was 1020 nM, the TGI [46] was > 22000 nM and the GI50 [47] was 1080 nM. The TGI [47] was > 22000 nM, the GI50 [48] was 600 nM and the TGI [48] was 5440 nM. The GI50 [49] was 3050 nM, the TGI [49] was 9570 nM and the GI50 [50] was 887 nM. The TGI [50] was 4000 nM, the GI50 [51] was 1090 nM and the TGI [51] was 4760 nM. The GI50 [52] was 720 nM, the TGI [52] was > 22000 nM and the GI50 [53] was 1200 nM. The TGI [53] was 4270 nM, the GI50 [54] was 538 nM and the TGI [54] was 2940 nM. It also gave a GI50 [55] of 719 nM, a TGI [55] of 3380 nM and a GI50 [56] of 2270 nM. For the same compound, the TGI [56] was 11600 nM, the GI50 [57] was 2260 nM and the TGI [57] was 5300 nM. For the same compound, the GI50 [58] was 1230 nM, the TGI [58] was > 22000 nM and the GI50 [59] was 2010 nM. For the same compound, the TGI [59] was 5900 nM.

`CCOc1c(Cl)cc(CNC(C)C(O)c2ccccc2)cc1OC` (stereo not given) was tested, and the GI50 [40] was 16700 nM and the TGI [40] was 33200 nM.
